According to patent US20230321103A1, “COMPOUND FOR INHIBITING MUTANT EGFR AND USE THEREOF” (East China University of Science and Technology, priority 2020, published 2023):

Columns and labels:
EGFR = target: T1, EGFR (Homo sapiens, UniProt P00533); experiment: Kinase spectrum evaluation, radiometric 33P-ATP kinase assay; type: biochemical; settings: room temperature 2 h, 10 concentration gradients
T1 construct: purchased Reaction Biology Corporation (commissioned test)
Description: (§15) The substrate for the kinase reaction was placed in a freshly prepared reaction buffer and the co-factors required for the kinase reaction were added, and the buffer was prepared as: 20 mM HEPES (pH 7.5), 10 mM MgCl2, 1 mM EGTA, 0.02% Brij35, 0.02 mg/mL BSA, 0.1 mM Na3VO4, 2 mM DTT, 1% DMSO; afterwards, the kinase to be tested was added and gently shaken. The compound to be tested was dissolved in DMSO to the desired concentration and added to the above buffer containing the kinase/substrate using an autosampler Echo550. 33P-labeled ATP (33P-ATP at a final concentration of 0.01 μCi/μL) was added to the reaction system to initiate the kinase reaction at room temperature for 2 h. […] Kinase activity data were expressed as a percentage of the remaining kinase activity in the test sample, 10 concentration gradients were measured, a curve was fitted and IC50 values were calculated using Prism4 (GraphPad software).

EGFR (A763_Y764insFHEA) = target: T2, EGFR (A763_Y764insFHEA) (Homo sapiens, UniProt P00533, INS763FHEA); experiment: as above; type: biochemical; settings: room temperature 2 h, 10 concentration gradients
T2 construct: purchased Reaction Biology Corporation (commissioned test)
Description: as §15

EGFR (A763_Y764insFQEA) = target: T3, EGFR (A763_Y764insFQEA) (Homo sapiens, UniProt P00533, INS763FQEA); experiment: as above; type: biochemical; settings: room temperature 2 h, 10 concentration gradients
T3 construct: purchased Reaction Biology Corporation (commissioned test)
Description: as §15

EGFR (d746-750) = target: T4, EGFR (d746-750) (Homo sapiens, UniProt P00533, DEL746-750); experiment: as above; type: biochemical; settings: room temperature 2 h, 10 concentration gradients
T4 construct: purchased Reaction Biology Corporation (commissioned test)
Description: as §15

EGFR (d747-749/A750P) = target: T5, EGFR (d747-749/A750P) (Homo sapiens, UniProt P00533, A750P/DEL747-749); experiment: as above; type: biochemical; settings: room temperature 2 h, 10 concentration gradients
T5 construct: purchased Reaction Biology Corporation (commissioned test)
Description: as §15

EGFR (D770_N771insNPG) = target: T6, EGFR (D770_N771insNPG) (Homo sapiens, UniProt P00533, INS770NPG); experiment: as above; type: biochemical; settings: room temperature 2 h, 10 concentration gradients
T6 construct: purchased Reaction Biology Corporation (commissioned test)
Description: as §15

[1] = target: T7, EGFR (D770_N771insNPG/T790M) (Homo sapiens, UniProt P00533, INS770NPG/T790M); experiment: as above; type: biochemical; settings: room temperature 2 h, 10 concentration gradients
T7 construct: purchased Reaction Biology Corporation (commissioned test)
Description: as §15

EGFR (G719C) = target: T8, EGFR (G719C) (Homo sapiens, UniProt P00533, G719C); experiment: as above; type: biochemical; settings: room temperature 2 h, 10 concentration gradients
T8 construct: purchased Reaction Biology Corporation (commissioned test)
Description: as §15

EGFR (G719S) = target: T9, EGFR (G719S) (Homo sapiens, UniProt P00533, G719S); experiment: as above; type: biochemical; settings: room temperature 2 h, 10 concentration gradients
T9 construct: purchased Reaction Biology Corporation (commissioned test)
Description: as §15

EGFR (L858R) = target: T10, EGFR (L858R) (Homo sapiens, UniProt P00533, L858R); experiment: as above; type: biochemical; settings: room temperature 2 h, 10 concentration gradients
T10 construct: purchased Reaction Biology Corporation (commissioned test)
Description: as §15

ERBB2 (D769Y) = target: T11, ERBB2 (D769Y) (Homo sapiens, UniProt P04626, D769Y); experiment: as above; type: biochemical; settings: room temperature 2 h, 10 concentration gradients
T11 construct: purchased Reaction Biology Corporation (commissioned test)
Description: as §15

ERBB2 (V777_G778insCG) = target: T12, ERBB2 (V777_G778insCG) (Homo sapiens, UniProt P04626, INS777CG); experiment: as above; type: biochemical; settings: room temperature 2 h, 10 concentration gradients
T12 construct: purchased Reaction Biology Corporation (commissioned test)
Description: as §15

ERBB2 (V777L) = target: T13, ERBB2 (V777L) (Homo sapiens, UniProt P04626, V777L); experiment: as above; type: biochemical; settings: room temperature 2 h, 10 concentration gradients
T13 construct: purchased Reaction Biology Corporation (commissioned test)
Description: as §15

[2] = tested on: EGFR D770_N771insNPG BaF3; experiment: Proliferation inhibition assay on stable cell lines (CTG Assay); type: cell-based; settings: Mus musculus, 72 hours, CellTiter-Glo
Description: (§1) Ba/F3, a mouse pro-B cell line dependent on interleukin-3, is a common system for studying kinases and kinase inhibitors. Recombinant expression of some protein kinases can make Ba/F3 cells no longer dependent on IL-3 for growth, and based on such properties, the inhibition of a compound on the proliferation of Ba/F3 cells expressing different target kinases can be detected, so as to reflect inhibitory effects of the compound on different kinase targets at the cellular level for kinase inhibitor screening.
(§2) CellTiter-Glo® Luminescent Cell Viability Assay was employed in this experiment to detect cell proliferation, and the specific principles are as follows:
(§3) Adenosine Tri-Phosphate (ATP) is a common energy carrier used in various life activities in nature and is the smallest unit of energy storage and transfer. In the CellTiter-Glo™ Live Cell Assay Kit, […] are used as detectors, which require the participation of ATP to generate light signals. After the CellTiter-Glo™ reagent is added to the cells, the luminescence value is measured. The light signal is proportional to the amount of ATP in the system, which is in turn positively correlated with the number of living cells. Therefore, by measuring the ATP content using the CellTiter-Glo kit, the viability of the cells and thus the level of cell proliferation can be reflected.
(§4) Cells were removed from the liquid nitrogen, quickly thawed in a water bath at 37 degree Celsius, lyophilization tubes were centrifuged at 1000 rpm, the supernatant of the lyophilized solution was discarded, and the cells were resuspended in RPMI1640+10% FBS medium and incubated in a cell culture incubator at 37 degree Celsius with a cell culture density maintaining at 2*10e5 to 2*10e6/ml at all times.
(§5) 1) The compound were serially diluted in DMSO in a compound formulation plate with a starting concentration of 1 or 10 mM and a gradient dilution of 3.
(§6) 2) A new compound formulation plate was prepared, 198 ul of RPMI160+10% FBS medium was added to each well, 2 ul/well of compound from the previous gradient-diluted compound formulation plate was transferred to this plate and mixed well, so that the highest starting compound concentration in this plate was […], and diluted by gradient (this plate was a 10* compound concentration dilution plate).
(§7) 1) Cells in logarithmic growth phase were taken, the supernatant was discarded by centrifugation, and the cells were re-suspended in a fresh RPMI1640 medium at a cell density of 2*10e4/ml.
(§8) 2) The re-suspended cells were inoculated into 2 96-well cell culture plates with white walls and clear bottom at 100 ul of cell suspension/well, and incubated overnight in a 37° C. cell incubator.
(§9) 3) The next day, one of the 96-well plates inoculated with cells were taken, 100 µl/well of cell titer glo assay reagent was added for 60 minutes, the value was read and defined as G0 data.
(§10) 4) Another parallel plate was taken, 11.1 ul/well of compound from the previously diluted 10* compound concentration dilution plate was added to this plate, so that the final concentration of compound in the cell assay plate started from 0.5 or 1 uM, which was 3-fold diluted for 9 concentration gradients. Additional DMSO control wells were set, and incubated in a 37° C. cell incubator for another 72 hours.
(§11) 5) The 96-well plate, in which cells were treated by the compound for 72 hrs, were taken from the incubator, 100 ul/well of cell titer glo assay reagent was added for 60 minutes, the value was read and defined as G3 data.
(§12) 6) The cell proliferation rate corresponding to each well was calculated according to the following formula
(§13) % prolifation=(G3 of the well of the compound to be tested−mean value of G)/(mean value of G3 of the DMSO control well−mean value of G0)*100.
(§14) Y=Bottom+(Top−Bottom)/(1+10^((Log IC50−X)*HillSlope))

[3] = tested on: EGFR D770_N771insSVD BaF3; experiment: as above; type: cell-based; settings: Mus musculus, 72 hours, CellTiter-Glo
Description: as §1, §2, §3, §4, §5, §6, §7, §8, §9, §10, §11, §12, §13, §14

EGFR G719A BaF3 = experiment: as above; type: cell-based; settings: Mus musculus, 72 hours, CellTiter-Glo
Description: as §1, §2, §3, §4, §5, §6, §7, §8, §9, §10, §11, §12, §13, §14

EGFR H773_V774insH BaF3 = experiment: as above; type: cell-based; settings: Mus musculus, 72 hours, CellTiter-Glo
Description: as §1, §2, §3, §4, §5, §6, §7, §8, §9, §10, §11, §12, §13, §14

EGFR L861Q BaF3 = experiment: as above; type: cell-based; settings: Mus musculus, 72 hours, CellTiter-Glo
Description: as §1, §2, §3, §4, §5, §6, §7, §8, §9, §10, §11, §12, §13, §14

[4] = tested on: EGFR V769_D770insASV BaF3; experiment: as above; type: cell-based; settings: Mus musculus, 72 hours, CellTiter-Glo
Description: as §1, §2, §3, §4, §5, §6, §7, §8, §9, §10, §11, §12, §13, §14

EGFR (D761Y) = target: T14, EGFR (D761Y) (Homo sapiens, UniProt P00533, D761Y); experiment: Kinase spectrum evaluation, radiometric 33P-ATP kinase assay; type: biochemical; settings: room temperature 2 h, 10 concentration gradients
T14 construct: purchased Reaction Biology Corporation (commissioned test)
Description: as §15

EGFR (D770GY) = target: T15, EGFR (D770GY) (Homo sapiens, UniProt P00533, D770Y/INS769G); experiment: as above; type: biochemical; settings: room temperature 2 h, 10 concentration gradients
T15 construct: purchased Reaction Biology Corporation (commissioned test)
Description: as §15

EGFR (G719D) = target: T16, EGFR (G719D) (Homo sapiens, UniProt P00533, G719D); experiment: as above; type: biochemical; settings: room temperature 2 h, 10 concentration gradients
T16 construct: purchased Reaction Biology Corporation (commissioned test)
Description: as §15

EGFR (L861Q) = target: T17, EGFR (L861Q) (Homo sapiens, UniProt P00533, L861Q); experiment: as above; type: biochemical; settings: room temperature 2 h, 10 concentration gradients
T17 construct: purchased Reaction Biology Corporation (commissioned test)
Description: as §15

T16 sequence (P00533 25-1210 G719D): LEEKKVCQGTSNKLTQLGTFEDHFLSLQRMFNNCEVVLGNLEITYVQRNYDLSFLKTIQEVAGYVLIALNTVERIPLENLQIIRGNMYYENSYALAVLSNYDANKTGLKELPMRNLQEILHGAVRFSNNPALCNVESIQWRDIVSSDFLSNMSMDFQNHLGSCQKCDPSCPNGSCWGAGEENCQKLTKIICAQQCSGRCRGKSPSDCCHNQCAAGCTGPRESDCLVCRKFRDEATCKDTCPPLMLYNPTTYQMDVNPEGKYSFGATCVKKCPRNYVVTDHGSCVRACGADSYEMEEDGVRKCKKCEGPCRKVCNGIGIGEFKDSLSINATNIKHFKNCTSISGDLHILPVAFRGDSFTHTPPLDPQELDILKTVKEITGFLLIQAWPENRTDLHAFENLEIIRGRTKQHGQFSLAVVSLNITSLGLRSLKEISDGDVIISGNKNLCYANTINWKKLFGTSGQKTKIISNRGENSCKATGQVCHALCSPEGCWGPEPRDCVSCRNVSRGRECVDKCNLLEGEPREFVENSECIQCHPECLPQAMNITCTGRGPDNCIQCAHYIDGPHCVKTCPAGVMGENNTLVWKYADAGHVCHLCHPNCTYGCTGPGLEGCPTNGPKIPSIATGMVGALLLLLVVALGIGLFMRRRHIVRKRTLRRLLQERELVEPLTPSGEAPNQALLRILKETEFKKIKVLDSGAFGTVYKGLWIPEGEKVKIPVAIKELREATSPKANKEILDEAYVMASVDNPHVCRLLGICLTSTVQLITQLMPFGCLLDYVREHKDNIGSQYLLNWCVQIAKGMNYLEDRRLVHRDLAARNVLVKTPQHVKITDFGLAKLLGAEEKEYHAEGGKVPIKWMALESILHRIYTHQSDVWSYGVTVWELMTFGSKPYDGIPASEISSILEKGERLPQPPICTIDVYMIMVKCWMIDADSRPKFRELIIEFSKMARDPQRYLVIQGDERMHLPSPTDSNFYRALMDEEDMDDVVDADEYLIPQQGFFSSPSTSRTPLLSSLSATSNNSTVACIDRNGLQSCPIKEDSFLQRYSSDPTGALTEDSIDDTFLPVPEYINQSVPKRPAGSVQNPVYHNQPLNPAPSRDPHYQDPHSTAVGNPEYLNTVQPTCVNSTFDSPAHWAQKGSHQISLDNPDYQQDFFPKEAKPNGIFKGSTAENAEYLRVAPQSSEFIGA
T9 sequence (P00533 25-1210 G719S): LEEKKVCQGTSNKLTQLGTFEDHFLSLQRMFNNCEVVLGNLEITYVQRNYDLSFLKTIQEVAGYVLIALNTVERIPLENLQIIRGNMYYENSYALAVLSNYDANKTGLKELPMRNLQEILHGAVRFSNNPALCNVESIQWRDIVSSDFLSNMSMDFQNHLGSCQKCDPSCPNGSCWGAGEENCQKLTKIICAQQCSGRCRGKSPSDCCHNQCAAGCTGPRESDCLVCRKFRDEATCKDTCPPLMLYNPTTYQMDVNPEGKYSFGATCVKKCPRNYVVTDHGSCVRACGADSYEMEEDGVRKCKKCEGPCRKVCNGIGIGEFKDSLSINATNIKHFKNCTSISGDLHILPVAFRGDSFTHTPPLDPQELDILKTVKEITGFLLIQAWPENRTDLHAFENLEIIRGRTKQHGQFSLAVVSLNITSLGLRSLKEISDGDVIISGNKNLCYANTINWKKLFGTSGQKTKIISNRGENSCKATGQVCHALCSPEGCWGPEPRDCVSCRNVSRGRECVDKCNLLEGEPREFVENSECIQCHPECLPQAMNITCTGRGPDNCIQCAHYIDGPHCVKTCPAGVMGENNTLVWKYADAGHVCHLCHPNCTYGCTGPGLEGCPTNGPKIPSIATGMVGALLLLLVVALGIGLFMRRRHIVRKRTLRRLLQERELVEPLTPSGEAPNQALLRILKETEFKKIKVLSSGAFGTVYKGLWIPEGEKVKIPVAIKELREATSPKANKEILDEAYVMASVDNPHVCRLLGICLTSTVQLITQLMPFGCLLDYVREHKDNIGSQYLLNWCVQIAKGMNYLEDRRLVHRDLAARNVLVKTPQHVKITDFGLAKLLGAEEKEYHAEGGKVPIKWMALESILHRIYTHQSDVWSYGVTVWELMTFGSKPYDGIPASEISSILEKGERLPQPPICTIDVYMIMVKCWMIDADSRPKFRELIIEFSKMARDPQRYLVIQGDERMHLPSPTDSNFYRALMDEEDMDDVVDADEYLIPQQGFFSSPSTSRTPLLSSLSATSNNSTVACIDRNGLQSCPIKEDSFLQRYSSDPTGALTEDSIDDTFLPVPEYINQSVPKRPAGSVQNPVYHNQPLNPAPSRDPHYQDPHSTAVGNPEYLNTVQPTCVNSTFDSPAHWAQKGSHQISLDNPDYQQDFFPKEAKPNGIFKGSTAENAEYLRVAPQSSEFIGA
T14 sequence (P00533 25-1210 D761Y): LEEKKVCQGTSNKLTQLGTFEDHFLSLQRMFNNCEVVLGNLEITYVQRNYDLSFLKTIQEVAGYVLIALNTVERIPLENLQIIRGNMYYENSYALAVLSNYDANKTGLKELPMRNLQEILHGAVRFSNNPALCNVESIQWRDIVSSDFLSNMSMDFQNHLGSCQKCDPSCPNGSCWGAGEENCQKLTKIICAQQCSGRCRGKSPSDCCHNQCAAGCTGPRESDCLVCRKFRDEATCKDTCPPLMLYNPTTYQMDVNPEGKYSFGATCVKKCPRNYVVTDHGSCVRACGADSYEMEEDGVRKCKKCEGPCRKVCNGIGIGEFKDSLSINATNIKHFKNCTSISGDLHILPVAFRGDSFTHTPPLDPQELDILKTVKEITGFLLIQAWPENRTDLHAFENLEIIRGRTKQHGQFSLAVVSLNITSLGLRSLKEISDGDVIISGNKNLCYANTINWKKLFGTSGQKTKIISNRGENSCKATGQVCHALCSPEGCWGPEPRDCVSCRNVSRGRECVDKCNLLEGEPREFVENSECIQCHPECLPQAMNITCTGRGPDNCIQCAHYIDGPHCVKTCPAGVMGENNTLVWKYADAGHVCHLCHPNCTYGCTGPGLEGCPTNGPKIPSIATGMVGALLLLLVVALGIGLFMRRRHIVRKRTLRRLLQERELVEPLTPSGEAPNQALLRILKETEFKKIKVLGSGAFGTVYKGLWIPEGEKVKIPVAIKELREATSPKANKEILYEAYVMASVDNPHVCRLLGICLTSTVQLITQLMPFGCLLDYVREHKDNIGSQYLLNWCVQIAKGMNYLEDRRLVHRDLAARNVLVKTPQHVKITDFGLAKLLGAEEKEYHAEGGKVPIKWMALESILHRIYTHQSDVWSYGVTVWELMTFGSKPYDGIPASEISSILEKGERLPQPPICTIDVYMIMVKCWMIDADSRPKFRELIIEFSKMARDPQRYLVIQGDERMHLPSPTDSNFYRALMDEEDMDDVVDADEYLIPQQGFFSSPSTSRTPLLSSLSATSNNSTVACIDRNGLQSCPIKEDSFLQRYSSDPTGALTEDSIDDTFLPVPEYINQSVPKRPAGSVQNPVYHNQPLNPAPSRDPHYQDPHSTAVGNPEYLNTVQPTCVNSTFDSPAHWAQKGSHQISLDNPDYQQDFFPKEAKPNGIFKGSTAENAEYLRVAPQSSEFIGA
T2 sequence (P00533 with tags, fused parts or gaps INS763FHEA limits assumed): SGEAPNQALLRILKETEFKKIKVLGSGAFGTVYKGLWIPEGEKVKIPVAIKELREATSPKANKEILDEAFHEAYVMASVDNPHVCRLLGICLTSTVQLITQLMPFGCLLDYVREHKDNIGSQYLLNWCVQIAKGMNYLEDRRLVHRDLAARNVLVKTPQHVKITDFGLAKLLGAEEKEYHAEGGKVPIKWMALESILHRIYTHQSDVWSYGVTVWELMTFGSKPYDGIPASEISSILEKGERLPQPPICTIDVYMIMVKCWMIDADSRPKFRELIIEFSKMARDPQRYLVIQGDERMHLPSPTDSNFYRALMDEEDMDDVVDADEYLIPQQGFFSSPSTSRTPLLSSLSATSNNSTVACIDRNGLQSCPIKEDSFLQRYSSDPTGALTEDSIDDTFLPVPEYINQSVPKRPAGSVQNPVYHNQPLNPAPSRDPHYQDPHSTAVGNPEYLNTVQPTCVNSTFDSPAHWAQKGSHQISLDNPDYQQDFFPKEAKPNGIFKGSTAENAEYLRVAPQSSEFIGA
T12 sequence (P04626 with tags, fused parts or gaps INS777CG limits assumed): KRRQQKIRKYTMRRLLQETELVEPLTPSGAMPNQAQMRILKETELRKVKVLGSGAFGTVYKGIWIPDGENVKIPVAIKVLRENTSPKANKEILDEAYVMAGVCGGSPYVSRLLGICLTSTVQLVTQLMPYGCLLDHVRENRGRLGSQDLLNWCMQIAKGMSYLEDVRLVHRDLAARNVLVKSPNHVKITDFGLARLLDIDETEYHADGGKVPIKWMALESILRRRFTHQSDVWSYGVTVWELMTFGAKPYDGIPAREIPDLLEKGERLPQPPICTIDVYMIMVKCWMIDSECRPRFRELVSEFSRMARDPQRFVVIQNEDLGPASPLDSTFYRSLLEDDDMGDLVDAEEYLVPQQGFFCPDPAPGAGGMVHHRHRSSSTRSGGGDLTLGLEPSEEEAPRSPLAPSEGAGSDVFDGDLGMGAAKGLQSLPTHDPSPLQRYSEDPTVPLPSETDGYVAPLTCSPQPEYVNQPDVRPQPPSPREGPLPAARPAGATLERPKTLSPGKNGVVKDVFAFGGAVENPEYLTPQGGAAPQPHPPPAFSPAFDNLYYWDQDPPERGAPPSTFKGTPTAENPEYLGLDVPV

Row | IC50 (EGFR (A763_Y764insFHEA)) [nM] | IC50 (EGFR (A763_Y764insFQEA)) [nM] | IC50 (EGFR (D770_N771insNPG)) [nM] | IC50 [1] [nM] | IC50 (EGFR (G719C)) [nM] | IC50 (EGFR (G719S)) [nM] | IC50 (ERBB2 (D769Y)) [nM] | IC50 (ERBB2 (V777_G778insCG)) [nM] | IC50 (ERBB2 (V777L)) [nM] | IC50 (EGFR (D761Y)) [nM] | IC50 (EGFR (D770GY)) [nM] | IC50 (EGFR (G719D)) [nM] | IC50 (EGFR (L861Q)) [nM] | Compound | further results
1 | 0.4 | 0.29 | 0.23 | 0.49 | 0.51 | 0.36 | 0.35 | 0.22 | 0.31 | – | – | – | – | C=CC(=O)Nc1cccc(-n2c(=O)c(-c3ccccc3)nc3cnc(Nc4ccc(N5CCN(C)CC5)cc4OC)nc32)c1 [Compound 1] | IC50 (EGFR): 0.08 nM; IC50 (EGFR (d746-750)): 0.84 nM; IC50 (EGFR (d747-749/A750P)): 0.29 nM; IC50 (EGFR (L858R)): 0.17 nM; GI50 [2]: 0.99 nM; GI50 [3]: 5.59 nM; GI50 (EGFR G719A BaF3): 0.58 nM; GI50 (EGFR H773_V774insH BaF3): 5.42 nM; GI50 (EGFR L861Q BaF3): 0.98 nM; GI50 [4]: 1.63 nM
2 | – | – | – | – | – | – | 0.21 | 0.09 | 0.21 | – | – | – | – | C=CC(=O)N1CCC(Oc2cc3c(Nc4ccc(Cl)c(Cl)c4F)ncnc3cc2OC)CC1 [Poziotinib] | –
3 | – | – | – | – | – | – | – | – | – | – | – | – | – | C=CC(=O)Nc1cc(Nc2ncc(C(=O)OC(C)C)c(-c3cn(C)c4ccccc34)n2)c(OC)cc1N(C)CCN(C)C [TAK788, Mobocertinib] | GI50 [2]: 1.53 nM; GI50 [3]: 4.73 nM; GI50 (EGFR G719A BaF3): 4.66 nM; GI50 (EGFR H773_V774insH BaF3): 4.44 nM; GI50 (EGFR L861Q BaF3): 2.55 nM; GI50 [4]: 1.49 nM
4 | 0.67 | 0.35 | 0.52 | 0.67 | 1.09 | 1.45 | 0.79 | 0.35 | 0.78 | 0.34 | 0.28 | 2.19 | 2.05 | C=CC(=O)Nc1cccc(-n2c(=O)c(-c3ccccc3)nc3cnc(Nc4ccc(N(C)CCN(C)C)cc4OC)nc32)c1 [compound A] | –
5 | 1.56 | 0.78 | 1.23 | 1.89 | 1.04 | 0.97 | 0.77 | 1.56 | 2.05 | 0.78 | 0.76 | 0.82 | 1.67 | C=CC(=O)Nc1cccc(-n2c(=O)c(-c3ccccc3)nc3cnc(Nc4ccc(N5CCN(C)CC5)c(OC)c4)nc32)c1 [compound B] | –
6 | 0.94 | 0.45 | 3.67 | 2.47 | 1.79 | 2.75 | 4.58 | 2.76 | 1.63 | 0.99 | 0.97 | 3.78 | 0.93 | C=CC(=O)Nc1cccc(-n2c(=O)c(C3CCCCC3)nc3cnc(Nc4ccc(N5CCN(C)CC5)cc4OC)nc32)c1 [compound C] | –
7 | 0.57 | 1.92 | 2.78 | 0.99 | 2.41 | 3.02 | 0.78 | 1.96 | 1.87 | 0.45 | 0.87 | 2.91 | 1.04 | C=CC(=O)Nc1cccc(-n2c(=O)c(-c3ccc(F)cc3)nc3cnc(Nc4ccc(N5CCN(C)CC5)cc4OC)nc32)c1 [compound D] | –
8 | 0.77 | 2.37 | 1.74 | 1.58 | 1.64 | 1.67 | 2.59 | 3.78 | 0.82 | 0.62 | 1.01 | 1.64 | 0.88 | C=CC(=O)Nc1cccc(-n2c(=O)c(-c3ccc(OC)cc3)nc3cnc(Nc4ccc(N5CCN(C)CC5)cc4OC)nc32)c1 [compound E] | –
